SMILES strings stand for the structures. Like-named read-outs stand apart in the source and are kept apart here.

The test system of data set [1] is HCC4017. The experiment in a line: MTS viability assay. The data set is classed as cell-based, human. The note with it: for IC50: Patient A cancer line, MTS, 4 days, read-out: Antiproliferative activity IC50, HCC4017; for Selectivity (HBEC-30KT vs HCC4017): Patient A. How it is done:
(§1) Immortalized normal human bronchial epithelial cells (also provided by Dr. John D. Minna) were cultured in KSFM supplemented with pituitary extract and EGF. For viability assays, cells were plated on 96 well plates and grown overnight. Cells were then exposed to increasing doses of the indicated compounds for 4 days and their viability assayed using the Promega Cell Titer 96 AQueous One kit per the manufacturer’s protocol. All doses were tested in 4–8 replicates. IC50 values were calculated using the in-house software DIVISA.
Background: Formazan colour is commonly taken as a measure of viable cells.

Data set [2] concerns HCC4018. The experiment in a line: MTS viability assay. It is filed as cell-based, human. The following applies: for IC50: Patient B cancer line, MTS, 4 days, read-out: Antiproliferative activity IC50, HCC4018; for Selectivity (HBEC-34KT vs HCC4018): Patient B. How it is done:
as §1

The test system of data set [3] is HBEC-34KT. In words: MTS viability assay. The following applies: Patient B normal line, 4 days, read-out: Antiproliferative activity IC50, HBEC-34KT. The data set is classed as cell-based, human. On the procedure: as §1, with “Lung cancer cells (kindly provided by Dr. John D. Minna, [13, 21]) were maintained in RPMI 1640 media supplemented with 10% FBS. Immortalized” for “Immortalized”

Data set [4] deals with HBEC-30KT. In words: MTS viability assay. It is filed as cell-based, human. The following applies: Patient A normal line, 4 days, read-out: Antiproliferative activity IC50, HBEC-30KT. How it is done: as §1, with “Lung cancer cells (kindly provided by Dr. John D. Minna, [13, 21]) were maintained in RPMI 1640 media supplemented with 10% FBS. Immortalized” for “Immortalized”
Data set [5] concerns epigenetically silenced GFP transgene in LDR cells. In words: locus derepression (LDR) assay, GFP induction. The data set is classed as cell-based. On the set-up: key to GFP Induc.: -: —negative. The following applies: for GFP Induc.: Fig 4. On the procedure:
LDR cells were maintained in DMEM with L-glutamine and high glucose, 1 mM sodium pyruvate, 0.1 mM MEM non-essential amino acids, 1% v/v penicillin-streptomycin and 10% heat inactivated FBS. Cells were seeded on glass bottom chambers at low-medium density and allowed to attach overnight. Compounds were then added for 24h at the indicated dose and cells were imaged under a fluorescent microscope equipped with a camera using a 20 or 40X objective. All images shown were exposed for identical time.

Data set [6] concerns the target T1, partially purified HDAC1 from mouse A20 cells (Mus musculus, UniProt O09106).
T1 construct: from mouse A20 cells was used as enzyme source; endogenous in cells; host or cells: mouse A20 cells
In words: HDAC1 activity assay, partially purified enzyme, [3H]acetate-prelabeled histones. The following applies: Table 3; partially purified HDAC1; read-out: HDAC1 IC50. The data set is classed as biochemical. The source says: For inhibition assays, partially purified HDAC1 (70–80 fold enriched relative to crude samples) from mouse A20 cells was used as enzyme source. HDAC1 activity was purified by a combination of anion exchange chromatography (Mono Q), affinity chromatography (Poly-lysin agarose, Heparin Sepharose) and TSK size exclusion chromatography (Jesacher and Loidl, unpublished). HDAC1 protein was identified by immunoblotting using anti mouse HDAC1 antibodies (collaboration with Zymed Laboratories, Inc., San Francisco, California, USA). HDAC activity was determined as described by Sendra et al., [20] using [^3H]acetate-prelabeled chicken reticulocyte histones as substrate. 50 μL of mouse HDAC1 were incubated with different concentrations of compounds for 10 min on ice and 10 μL of total [^3H] acetate pre-labeled chicken reticulocyte histones (4 mg/mL) were added, resulting in a concentration of 41 μM. This mixture was incubated at 37°C for 1 h. The reaction was stopped by addition of 50 μL of 1 M HCl/0.4 M acetylacetate and 1 mL ethylacetate. After centrifugation at 10000 x g for 5 min an aliquot of 600 μL of the upper phase was counted for radioactivity in 3 mL liquid scintillation cocktail.

In data set [7] the target is T2, recombinant HDAC1 (Homo sapiens, UniProt Q13547).
T2 construct: purchased Epigenetek
The experiment in a line: comparative HDAC inhibition assay (Millipore fluorometric kit). The data set is classed as biochemical. The note with it: recombinant HDAC1, fluorometric substrate; Table 4. How it is done: (§2) For the direct comparison of HDAC1 vs. HDAC6 inhibition, HDAC activity was analyzed using the HDAC Assay Kit from Millipore (17–356). Briefly, recombinant HDAC1 or recombinant HDAC6 (both purchased from Epigenetek, Purity of HDAC1 is more than 60% and purity HDAC6 is more than 85%). was incubated with the fluorometric HDAC substrate according to the manufacturer’s protocol in the presence of DMSO vehicle or increase compound doses. In a secondary activator reaction, the fluorophore is only cleaved from the deacetylated substrate, allowing for quantification. Fluorescence was quantified on a FLUOstar-Optima or a FLUOstar Omega plate reader (BMG Biosciences).

Data set [8] addresses T3, recombinant HDAC6 (Homo sapiens, UniProt Q9UBN7).
T3 construct: purchased Epigenetek
T3 sequence (Q9UBN7 1-1215): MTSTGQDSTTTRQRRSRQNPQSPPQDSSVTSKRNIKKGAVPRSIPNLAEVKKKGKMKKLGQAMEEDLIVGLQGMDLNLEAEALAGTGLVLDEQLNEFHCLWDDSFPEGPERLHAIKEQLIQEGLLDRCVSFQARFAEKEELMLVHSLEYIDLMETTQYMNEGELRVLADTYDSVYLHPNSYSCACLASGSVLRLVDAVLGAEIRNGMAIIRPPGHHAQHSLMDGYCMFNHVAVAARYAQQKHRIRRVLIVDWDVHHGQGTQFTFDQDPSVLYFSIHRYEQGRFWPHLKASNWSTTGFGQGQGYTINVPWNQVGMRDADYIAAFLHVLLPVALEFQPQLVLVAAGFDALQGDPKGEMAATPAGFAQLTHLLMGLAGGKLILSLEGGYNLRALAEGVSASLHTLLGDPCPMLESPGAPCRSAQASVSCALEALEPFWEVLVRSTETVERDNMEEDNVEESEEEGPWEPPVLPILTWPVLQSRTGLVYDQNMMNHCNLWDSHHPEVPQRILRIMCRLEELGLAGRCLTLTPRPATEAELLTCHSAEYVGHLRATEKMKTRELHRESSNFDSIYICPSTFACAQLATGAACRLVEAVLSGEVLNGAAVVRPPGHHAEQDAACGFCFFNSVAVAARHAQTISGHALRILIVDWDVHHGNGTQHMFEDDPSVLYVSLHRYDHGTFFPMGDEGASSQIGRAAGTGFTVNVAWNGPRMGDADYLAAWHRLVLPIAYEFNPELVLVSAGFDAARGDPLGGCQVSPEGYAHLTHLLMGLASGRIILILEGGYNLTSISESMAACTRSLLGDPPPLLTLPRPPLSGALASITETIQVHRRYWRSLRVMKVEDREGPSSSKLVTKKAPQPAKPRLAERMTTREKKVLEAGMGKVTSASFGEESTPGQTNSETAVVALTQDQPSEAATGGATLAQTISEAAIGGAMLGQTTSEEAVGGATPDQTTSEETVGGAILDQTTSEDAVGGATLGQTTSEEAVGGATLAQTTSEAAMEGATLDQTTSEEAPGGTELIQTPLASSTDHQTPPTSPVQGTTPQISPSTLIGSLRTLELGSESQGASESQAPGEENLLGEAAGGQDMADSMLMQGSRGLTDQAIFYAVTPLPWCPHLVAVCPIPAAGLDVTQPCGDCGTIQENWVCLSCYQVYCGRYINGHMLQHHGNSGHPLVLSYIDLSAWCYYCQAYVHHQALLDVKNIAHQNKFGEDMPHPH
Described as above. The data set is classed as biochemical. The following applies: for IC50: read-out: HDAC6 IC50. How it is done:
as §2

The subject of data set [9] is HDAC1. The following applies: read-out: HDAC1 IC50; Table 4; cited from earlier work.
For data set [10], the system named is HDAC6. The note with it: read-out: HDAC6 IC50; Table 4; cited from earlier work.
Data set [11] deals with HDAC1. The following applies: Table 4; cited from earlier work.

T1 sequence (O09106 whole entry): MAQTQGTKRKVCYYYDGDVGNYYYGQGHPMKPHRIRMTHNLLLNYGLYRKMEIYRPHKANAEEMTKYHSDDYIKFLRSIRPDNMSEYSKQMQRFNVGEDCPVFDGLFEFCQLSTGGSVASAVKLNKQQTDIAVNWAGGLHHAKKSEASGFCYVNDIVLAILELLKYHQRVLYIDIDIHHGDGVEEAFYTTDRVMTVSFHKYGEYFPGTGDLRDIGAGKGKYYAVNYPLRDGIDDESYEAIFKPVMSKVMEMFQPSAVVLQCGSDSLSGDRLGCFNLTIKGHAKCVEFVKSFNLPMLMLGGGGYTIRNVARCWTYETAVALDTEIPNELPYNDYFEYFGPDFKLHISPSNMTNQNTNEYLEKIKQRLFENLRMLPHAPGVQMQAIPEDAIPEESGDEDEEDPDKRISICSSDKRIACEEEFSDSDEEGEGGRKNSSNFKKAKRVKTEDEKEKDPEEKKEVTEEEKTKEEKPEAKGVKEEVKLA
T2 sequence (Q13547 whole entry): as the sequence (O09106 whole entry) above, with K8R, E399D, D424E counted along it

As for `CCC(=O)CCCCC[C@@H]1NC(=O)[C@H]2CCCCN2C(=O)[C@H]([C@@H](C)CC)NC(=O)[C@H](Cc2cn(OC)c3ccccc23)NC1=O` [Apicidin, reference compound], the IC50 – broadly, the concentration that inhibits the measured activity by half – in data set [1] (Homo sapiens, HCC4017, 96 h) was 0.12 µM; in data set [2] (Homo sapiens, 96 h), 0.03 µM; in [3] (Homo sapiens, 96 h), 0.79 µM; in data set [4] (Homo sapiens, 96 h), 0.09 µM. Besides, the “Selectivity (HBEC-30KT vs HCC4017)” value in data set [1] amounted to 0.75. In addition, the “Selectivity (HBEC-34KT vs HCC4018)” value in [2] is recorded as 26.3. The “selectivity higher by a factor compared to compounds 9b-d” value in [2] (cells derived from patient B) is reported as 7–13 fold.

As to `O=C(NO)c1cccc(S(=O)(=O)N2CCN(c3nc4ccccc4[nH]3)CC2)c1` [Compound 8a, 3-[4(1H -Benzimidazol-2-yl)-piperazin-1-sulfonyl]-N -hydroxy-benzamid], the melting point (as a rule, the temperature of the solid-liquid transition) lay in the range of 349 to 350 °C. Further, the “GFP Induc.” value in data set [5] is reported as “-”.

`Cn1c(N2CCN(S(=O)(=O)c3cccc(C(=O)NO)c3)CC2)nc2ccccc21` [Compound 8b, 3-[4-(1-Methyl-Benzimidazol-2-yl)-piperazin-1-sulfonyl]-N -hydroxy-benzamid]: the melting point was in the range of 167 to 169 °C. In addition, the “GFP Induc.” value in data set [5] is “-”. Moreover, in [6], the IC50 is 316 µM.

Molecule `O=C(NO)c1cccc(S(=O)(=O)N2CCN(c3nc4ccccc4o3)CC2)c1` [Compound 8c, 3-(4-Benzoxazol-2-yl-piperazin-1-sulfonyl)-N -hydroxy-benzamid] returned a melting point of 257 to 262 °C. Further, in [5], the “GFP Induc.” value was “-”. Moreover, in data set [6], the IC50 is 216 µM.

On to `O=C(NO)c1cccc(S(=O)(=O)N2CCN(c3nc4ccccc4s3)CC2)c1` [Compound 8d, 3-(4-Benzothiazol-2-yl-piperazin-1-sulfonyl)-N -hydroxy-benzamid], for which the melting point was in the range of 207 to 210 °C. Moreover, in data set [5], the “GFP Induc.” value is on record as “-”. For the same molecule, in data set [6], the IC50 worked out at 140 µM.

In the case of `O=C(NO)c1ccc(S(=O)(=O)N2CCN(c3nc4ccccc4[nH]3)CC2)cc1` [Compound 9a, 4-[4(1H-Benzimidazol-2-yl)-pipreazin-1-sulfonyl]-N-hydroxy-benzamid], the melting point was 382 to 383 °C (dec.). In addition, in [5], the “GFP induction / activity in the LDR assay” value is “inactive” and the “GFP Induc.” value is “-”. Besides, the half-inhibitory concentration (IC50) in data set [1] (Homo sapiens, HCC4017, 96 h) was > 10 µM. Moreover, the “cellular activity” value in data set [1] (MTS viability, lung cancer and normal lines) is recorded as “no cellular activity”. Besides, the IC50 in data set [2] (Homo sapiens, 96 h) is > 10 µM. In addition, the IC50 in data set [3] (Homo sapiens, 96 h) was > 10 µM. Moreover, the 50% inhibitory concentration (IC50) in data set [4] (Homo sapiens, 96 h) was > 10 µM. Moreover, the IC50 in [7] was 6 ± 2.9 µM. In data set [8] (Table 3), the IC50 worked out at 1 µM. The “Selectivity Index HDAC1/HDAC6” value in data set [8] (Table 4) stood at 6.5. The IC50 in data set [8] (recombinant HDAC6, fluorometric substrate, Table 4) was 0.93 ± 0.75 µM. Besides, in [6], the IC50 stood at 12.4 µM.

Consider `C/C=C1\NC(=O)[C@H]2CSSCC/C=C/[C@H](CC(=O)N[C@H](C(C)C)C(=O)N2)OC(=O)[C@H](C(C)C)NC1=O` [Depsi., Depsipeptide, reference compound], for which, in data set [1], the “Selectivity (HBEC-30KT vs HCC4017)” value came out at 0.14. Moreover, the 50% inhibitory concentration (IC50) is 0.0065 µM in data set [1], 0.0042 µM in [2], 0.0013 µM in [3] and 0.0009 µM in data set [4]. Also, in data set [1] (both paired cell lines), the “toxicity to normal vs patient-matched cancer cells” value is “more toxic to normal cells than to the patient-matched cancer cells”. In addition, the “Selectivity (HBEC-34KT vs HCC4018)” value in data set [2] is reported as 0.31.

For the molecule `CC(/C=C/C(=O)NO)=C\[C@@H](C)C(=O)c1ccc(N(C)C)cc1` [TSA, trichostatin A, reference compound], the IC50 in [9] is […]; in data set [10], 0.0086 ± 0.0014 µM; in data set [1], 0.073 µM; in data set [2], 0.023 µM; in [3], 0.346 µM; in data set [4], 0.285 µM.

On to `CN1CCc2c(c3ccccc3n2Cc2ccc(C(=O)NO)cc2)C1` [Tubastatin A], for which, in data set [11], the IC50 was […].

Values taken from publication PMC4689404, “2-Benzazolyl-4-Piperazin-1-Ylsulfonylbenzenecarbohydroxamic Acids as Novel Selective Histone Deacetylase-6 Inhibitors with Antiproliferative Activity” (PLoS ONE, 2015).
